The results in this text go back to patent US12012373B2, “Cannabinoid derivatives” (CANOPY GROWTH CORPORATION, priority 2019, dated 2024).

In one experiment the target is T1, human CB2 receptor (Homo sapiens, UniProt P34972).
T1 construct: membranes prepared in house
In words: CB2 radioligand competitive binding assay ([3H]CP 55,940 displacement). The note with it: for IC50: [3H]CP 55,940 displacement, CHO-K1 membranes expressing human CB2 receptor; for Selectivity CB2: fold difference in binding between CB1 and CB2, shown in the column of the receptor with higher affinity, 1.00 in both = about same affinity. As to the method: Compounds of the present disclosure were tested for CB1 receptor binding affinity and for CB2 receptor binding affinity. As used herein, “binding affinity” is represented by the IC50 value, which was experimentally determined as described herein. The lower the IC50 value the higher the binding affinity. A compound of the present disclosure may be said to have “binding selectivity” If it has a higher binding affinity for one receptor compared to the other.
The membranes were prepared from CHO-K1 (Chinese hamster ovary) cells stably transfected with the human CB2 receptor (Cat. #ES-111-C; Perkin Elmer, Boston, MA). The cells were grown adherently and maintained in Ham's F12 medium containing 10% fetal bovine serum (FBS), penicillin, streptomycin and geneticin (G418) at 37° C. in a humid atmosphere of 5% CO2 following the manufacturer's Instructions.
For membrane preparation the cells were washed with PBS and scraped off the plates in cold homogenization buffer (25 mM HEPES (pH 7.4), 2 mM EDTA) containing protease inhibitor cocktail (Sigma Cat. #P8340). The cell suspension was homogenized with a Pro-PK-01200D Polytron Homogenizer (Pro Scientific) and then centrifuged for 30 min at 120,000×g. The supernatant was discarded and the pellet was re-suspended in the homogenization buffer and stored at −80° C. until the time of use.
In this experiment, 3H radiolabeled CP 55,940, i.e. [3H]CP 55,940 (Perkin Elmer, Boston, MA), was used as a radioligand for the CB2 receptor to determine the binding affinity of compounds for the CB2 receptor (Scheme 8; above).
The competition binding experiments (single dose and dose-response) were performed by incubating 0.6 nM of [3H]CP55,940 (specific activity 101 Ci/mmol, Perkin Elmer) and different concentrations of compounds disclosed herein with membranes prepared as above from CHO-K1 cells expressing human CB2 receptor (1 μg of protein/well), 50 mM Tris-HCl (pH 7.4), 5 mM MgCl2, 1 mM CaCl2, and 2 mg/mL BSA.
For the single dose experiments, the compound stocks (usually 10 mM in DMSO) were diluted to working stocks in the binding buffer to give the final compound concentrations of 10 μM and 1 μM. For the dose-response experiments the test compounds were sequentially diluted to provide the desired concentration range for the IC50 determination. In each case the compounds were pre-incubated with the membrane for 20 min, before adding the radioligand.
After incubation with the radioligand for 60 min at 37° C., the incubation was terminated by rapid filtration of assay mixture through MultiScreen®HTS^+ 96-well filter plates (Millipore, Cat. #MSFCNXB), pre-soaked for 60 min with 50 mM Tris-HCl (pH 7.4) containing 0.33% polyethylenimine (PEI). The nonspecific binding (NSB) was determined in the presence of 10 μM unlabeled CP55,940. After drying the filter plate at 50° C. for at least 60 min, the filter-bound radioactivity was determined by scintillation spectrometry using the 1450 MicroBeta Plate Counter (Perkin Elmer, Boston, MA). From the dose-response experiments, the IC50 values were determined (see Table 1, CB2 IC50).

Experiment [1] concerns the target T2, human CB1 receptor (Homo sapiens, UniProt P21554). In words: biochemical. More on the design: membranes prepared in house. The format is binding. The note with it: for Selectivity CB1: fold difference in binding between CB1 and CB2, shown in the column of the receptor with higher affinity, 1.00 in both = about same affinity.
The target of experiment [2] is T2, human CB1 receptor. The experiment can be described thus: PathHunter β-Arrestin functional assay, CB1 receptor, antagonist mode. The format is cell-based. Further details: membranes prepared in house. The note with it: for inhibition at 4 µM: read-out: relative inhibition in comparison to rimonabant.

T1 sequence (P34972 whole entry): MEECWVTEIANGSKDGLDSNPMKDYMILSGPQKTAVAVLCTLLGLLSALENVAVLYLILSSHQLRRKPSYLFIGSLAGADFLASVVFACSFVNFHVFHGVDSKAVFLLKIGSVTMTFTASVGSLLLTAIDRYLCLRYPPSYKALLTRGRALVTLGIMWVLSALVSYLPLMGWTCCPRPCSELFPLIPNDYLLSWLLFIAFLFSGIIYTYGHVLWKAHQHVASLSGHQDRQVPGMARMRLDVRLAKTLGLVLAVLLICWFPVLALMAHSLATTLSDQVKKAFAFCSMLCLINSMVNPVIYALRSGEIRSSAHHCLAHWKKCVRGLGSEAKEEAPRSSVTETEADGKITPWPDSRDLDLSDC
T2 sequence (P21554 whole entry): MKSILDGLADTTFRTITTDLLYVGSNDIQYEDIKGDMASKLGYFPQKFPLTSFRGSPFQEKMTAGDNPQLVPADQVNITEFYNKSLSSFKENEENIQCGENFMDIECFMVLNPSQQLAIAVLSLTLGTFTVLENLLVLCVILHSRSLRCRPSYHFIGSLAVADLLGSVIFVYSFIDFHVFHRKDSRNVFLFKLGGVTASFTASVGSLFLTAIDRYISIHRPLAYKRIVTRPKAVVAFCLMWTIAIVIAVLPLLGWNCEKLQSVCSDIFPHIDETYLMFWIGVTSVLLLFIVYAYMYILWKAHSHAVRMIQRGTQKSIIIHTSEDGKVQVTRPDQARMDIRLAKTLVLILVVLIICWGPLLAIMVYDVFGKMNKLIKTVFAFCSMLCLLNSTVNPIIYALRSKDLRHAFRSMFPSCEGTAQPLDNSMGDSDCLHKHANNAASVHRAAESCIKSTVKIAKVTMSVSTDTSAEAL

By IC50 is commonly meant the midpoint of a concentration-inhibition curve. Consider `C=C(C)[C@@H]1CCC(C)=C[C@H]1c1c(O)cc(CCCCC)c(S(=O)(=O)N(C)C)c1O` (stereo in doubt) [Compound 21d, 2,6-dihydroxy-N,N,5′-trimethyl-4-pentyl-2′-(prop-1-en-2-yl)-1′,2′,3′,4′-tetrahydro-[1,1′-biphenyl]-3-sulfonamide], for which, at human CB2 receptor, the concentration for half-maximal inhibition (IC50) lay within 100 to 990 nM and the “Selectivity CB2” value was found to be 1.41 fold. For the same compound, the IC50 at human CB1 receptor [1] was 100 to 990 nM.

For `C=C(C)[C@@H]1CCC(C)=C[C@H]1c1c(O)cc(CCCCC)c(S(=O)(=O)NC(C)C)c1O` (stereo in doubt) [Compound 23d, 2,6-dihydroxy-N-isopropyl-5′-methyl-4-pentyl-2′-(prop-1-en-2-yl)-1′,2′,3′,4′-tetrahydro-[1,1′-biphenyl]-3-sulfonamide], the half-inhibitory concentration (IC50) lay within 100 to 990 nM at human CB2 receptor and 1000 to 5000 nM against human CB1 receptor [1]. Moreover, the “Selectivity CB2” value on human CB2 receptor is recorded as 2.56 fold.

On to `C=C(C)[C@@H]1CCC(C)=C[C@H]1c1c(O)cc(CCCCC)c(S(C)(=O)=O)c1O` [Compound 3d, 5′-methyl-3-(methylsulfonyl)-4-pentyl-2′-(prop-1-en-2-yl)-1′,2′,3′,4′-tetrahydro-[1,1′-biphenyl]-2,6-diol], for which, at human CB2 receptor, the concentration for half-maximal inhibition (IC50) lay within 1000 to 5000 nM and the “Selectivity CB2” value worked out at 2.00 fold. This compound also gave a half-maximal inhibitory concentration (IC50) on human CB1 receptor [1] of 1000 to 5000 nM.

For the compound `CCCCCc1cc(O)c(C2C=C(C)CCC2)c(O)c1S(N)(=O)=O` (stereo not shown) [Compound 19c, 2,6-dihydroxy-5′-methyl-4-pentyl-1′,2′,3′,4′-tetrahydro-[1,1′-biphenyl]-3-sulfonamide], at human CB2 receptor, the IC50 was in the range of 1000 to 5000 nM and the “Selectivity CB2” value turned out to be 1.00 fold. For the same compound, at human CB1 receptor [1], the half-inhibitory concentration (IC50) lay in the range of 1000 to 5000 nM and the “Selectivity CB1” value is reported as 1.00 fold.

Usually inhibition stands for the change of the read-out against control, counted positive when it falls. For `CCCCCc1cc(O)c(C2C=C(C)CCC2)c(O)c1S(=O)(=O)NC1CC1` (stereo not shown) [Compound 22c, N-cyclopropyl-2,6-dihydroxy-5′-methyl-4-pentyl-1′,2′,3′,4′-tetrahydro-[1,1′-biphenyl]-3-sulfonamide], on human CB2 receptor, the concentration for half-maximal inhibition (IC50) was in the range of 100 to 990 nM and the “Selectivity CB2” value was 11.59 fold. Moreover, the IC50 at human CB1 receptor [1] was in the range of 1000 to 5000 nM. In addition, on human CB1 receptor [2], the IC50 was in the range of 775 to 3000 nM and the inhibition at 4 µM is 11 to 79%.

As to `C=C(C)[C@@H]1CCC(C)=C[C@H]1c1c(O)cc(CCCCC)c(S(=O)(=O)NC2CC2)c1O` [Compound 22d, N-Cyclopropyl-2,6-Dihydroxy-5′-Methyl-4-Pentyl-2′-(Prop-1-En-2-Yl)-1′,2′,3′,4′-Tetrahydro-[1,1′-Biphenyl]-3-Sulfonamide], the IC50 on human CB2 receptor lay in the range of 1000 to 5000 nM; on human CB1 receptor [1], 1000 to 5000 nM; against human CB1 receptor [2] it was 775 to 3000 nM. The “Selectivity CB2” value on human CB2 receptor is given as 1.52 fold. For the same compound, the inhibition at 4 µM on human CB1 receptor [2] lay in the range of 11 to 79%.

Regarding `CCCCCc1cc(O)c(C2C=C(C)CCC2)c(O)c1S(=O)(=O)Nc1ccccc1` (stereo not shown) [Compound 24c, 2,6-dihydroxy-5′-methyl-4-pentyl-N-phenyl-1′,2′,3′,4′-tetrahydro-[1,1′-biphenyl]-3-sulfonamide], the concentration for half-maximal inhibition (IC50) on human CB2 receptor was 100 to 990 nM; at human CB1 receptor [1], 1000 to 5000 nM. Besides, the “Selectivity CB2” value at human CB2 receptor is given as 3.60 fold.

`C=C(C)[C@@H]1CCC(C)=C[C@H]1c1c(O)cc(CCCCC)c(S(=O)(=O)Nc2ccccc2)c1O` [Compound 24d, 2,6-dihydroxy-5′-methyl-4-pentyl-N-phenyl-2′-(prop-1-en-2-yl)-1′,2′,3′,4′-tetrahydro-[1,1′-biphenyl]-3-sulfonamide]: at human CB2 receptor, the IC50 was in the range of 1000 to 5000 nM and the “Selectivity CB2” value came to 1.67 fold. The compound further displayed an IC50 against human CB1 receptor [1] of 1000 to 5000 nM.

Regarding `CCCCCc1cc(O)c(C2C=C(C)CCC2)c(O)c1S(=O)(=O)NCc1ccccc1` (stereo not shown) [Compound 25c, N-benzyl-2,6-dihydroxy-5′-methyl-4-pentyl-1′,2′,3′,4′-tetrahydro-[1,1′-biphenyl]-3-sulfonamide], at human CB2 receptor, the IC50 fell in the range of 100 to 990 nM and the “Selectivity CB2” value amounted to 1.50 fold. This compound came in with an IC50 on human CB1 receptor [1] of 100 to 990 nM.

On to `C=C(C)[C@@H]1CCC(C)=C[C@H]1c1c(O)cc(CCCCC)c(S(=O)(=O)NCc2ccccc2)c1O` [Compound 25d, N-benzyl-2,6-dihydroxy-5′-methyl-4-pentyl-2′-(prop-1-en-2-yl)-1′,2′,3′,4′-tetrahydro-[1,1′-biphenyl]-3-sulfonamide], for which, on human CB2 receptor, the IC50 was in the range of 1000 to 5000 nM and the “Selectivity CB2” value was 2.00 fold. For the same compound, the IC50 on human CB1 receptor [1] is 1000 to 5000 nM.

`CCCCCc1cc(O)c(C2C=C(C)CCC2)c(O)c1S(=O)(=O)N1CCOCC1` (stereo not shown) [Compound 28c, 5′-methyl-3-(morpholinosulfonyl)-4-pentyl-1′,2′,3′,4′-tetrahydro-[1,1′-biphenyl]-2,6-diol]: the values for the IC50 at human CB2 receptor and on human CB1 receptor [2] were 100 to 990 nM and 775 to 3000 nM, respectively. The inhibition at 4 µM on human CB1 receptor [2] was in the range of 11 to 79%.

For the compound `C=C(C)[C@@H]1CCC(C)=C[C@H]1c1c(O)cc(CCCCC)c(S(=O)(=O)N2CCOCC2)c1O` [Compound 28d, 5′-Methyl-3-(Morpholinosulfonyl)-4-Pentyl-2′-(Prop-1-En-2-Yl)-1′,2′,3′,4′-Tetrahydro-[1,1′-Biphenyl]-2,6-Diol], at human CB2 receptor, the IC50 is below 100 nM and the “Selectivity CB2” value is 8.20 fold. The compound also had an IC50 on human CB1 receptor [1] of 100 to 990 nM.

Turning to `C=C(C)[C@@H]1CCC(C)=C[C@H]1c1c(O)cc(CCCCC)c(S(=O)(=O)N(CC)CC)c1O` [Compound 62d, N,N-Diethyl-2,6-Dihydroxy-5′-Methyl-4-Pentyl-2′-(Prop-1-En-2-Yl)-1′,2′,3′,4′-Tetrahydro-[1,1′-Biphenyl]-3-Sulfonamide], the IC50 at human CB2 receptor is 100 to 990 nM; against human CB1 receptor [1], 100 to 990 nM; against human CB1 receptor [2], 775 to 3000 nM. Besides, the “Selectivity CB2” value on human CB2 receptor was 6.29 fold. In addition, the inhibition at 4 µM at human CB1 receptor [2] was in the range of 11 to 79%.

With `C=C(C)[C@@H]1CCC(C)=C[C@H]1c1c(O)cc(CCCCC)c(S(=O)(=O)N(CCO)CCBr)c1O` [Compound 63d, N-(2-bromoethyl)-2,6-dihydroxy-N-(2-hydroxyethyl)-5′-methyl-4-pentyl-2′-(prop-1-en-2-yl)-1′,2′,3′,4′-tetrahydro-[1,1′-biphenyl]-3-sulfonamide], on human CB2 receptor, the half-maximal inhibitory concentration (IC50) lay in the range of 1000 to 5000 nM and the “Selectivity CB2” value was found to be 1.00 fold. At human CB1 receptor [1], the IC50 lay within 1000 to 5000 nM and the “Selectivity CB1” value amounted to 1.00 fold.

As to `C=C(C)[C@@H]1CCC(C)=C[C@H]1c1c(O)cc(CCCCC)c(S(=O)(=O)OCC(F)(F)F)c1O` [Compound 64d, 2,2,2-trifluoroethyl-2,6-dihydroxy-5′-methyl-4-pentyl-2′-(prop-1-en-2-yl)-1′,2′,3′,4′-tetrahydro-[1,1′-biphenyl]-3-sulfonate], the IC50 at human CB2 receptor fell in the range of 100 to 990 nM. Moreover, at human CB1 receptor [1], the IC50 was 100 to 990 nM and the “Selectivity CB1” value was 2.00 fold.

As for `C=C(C)[C@@H]1CCC(C)=C[C@H]1c1c(O)cc(CCC)c(S(=O)(=O)N(C)C)c1O` [Compound 67d, 2,6-dihydroxy-N,N,5′-trimethyl-2′-(prop-1-en-2-yl)-4-propyl-1′,2′,3′,4′-tetrahydro-[1,1′-biphenyl]-3-sulfonamide], at human CB2 receptor, the IC50 lay in the range of 1000 to 5000 nM and the “Selectivity CB2” value is recorded as 3.08 fold. On human CB1 receptor [1], this compound gave an IC50 of 1000 to 5000 nM.

As to `C=C(C)[C@@H]1CCC(C)=C[C@H]1c1c(O)cc(CCC)c(S(=O)(=O)NC(C)C)c1O` [Compound 68d, 2,6-dihydroxy-N-isopropyl-5′-methyl-2′-(prop-1-en-2-yl)-4-propyl-1′,2′,3′,4′-tetrahydro-[1,1′-biphenyl]-3-sulfonamide], at human CB2 receptor, the IC50 lay in the range of 1000 to 5000 nM and the “Selectivity CB2” value worked out at 1.74 fold. At human CB1 receptor [1], the half-maximal inhibitory concentration (IC50) was in the range of 1000 to 5000 nM.

`CCCCCc1cc(O)c(C2C=C(C)CCC2)c(O)c1C(=O)NS(=O)(=O)c1cccnc1` (stereo not shown) [Compound 71c, 2,6-dihydroxy-5′-methyl-4-pentyl-N-(pyridin-3-ylsulfonyl)-1′,2′,3′,4′-tetrahydro-[1,1′-biphenyl]-3-carboxamide] gave an IC50 on human CB2 receptor of 100 to 990 nM. Besides, at human CB1 receptor [1], the IC50 was 100 to 990 nM and the “Selectivity CB1” value is 1.14 fold. On human CB1 receptor [2], the IC50 is 775 to 3000 nM and the inhibition at 4 µM lay in the range of 11 to 79%.
